In patent US5166135A, “Method for the control of pneumocystis carinii” (Merck & Company, Inc., priority 1991, dated 1992):
Values joined by “and” are separate entries in the source; they are usually repeats but may differ in a detail not shown here. Identical values can stand only once. Numbered stars: 1 amine (or outer) side, 2 acyl side, 3 side chain; on linkers, the order of the positions; unused ones are H or OH. Bridge positions count the residues as written; N and C are the ends. Square brackets hold non-standard residues; d marks the D form. Peptide text beside a SMILES is read from it. * marks the point of attachment. ξ: configuration not given here. Orn(4R-OH,5R-OH) = O=C([C@H](C[C@@H](O)[C@@H](O)N[*:3])N[*:1])[*:2]; ξOrn(4R-OH,5R-OH) = O=C(C(C[C@@H](O)[C@@H](O)N[*:3])N[*:1])[*:2]; Tetradecanoyl(10R,12S-Me2) = CC[C@H](C)C[C@H](C)CCCCCCCCC(=O)*; hTyr(3S-OH,4S-OH) = N[C@H](C(=O)O)[C@H](O)[C@@H](O)c1ccc(O)cc1; ξhTyr(3S-OH,4S-OH) = NC(C(=O)O)[C@H](O)[C@@H](O)c1ccc(O)cc1; ξOrn(4,5-diOH) = O=C(C(CC(O)C(O)N[*:3])N[*:1])[*:2]; ξhTyr(βξ-OH,γξ-OH) = NC(C(=O)O)C(O)C(O)c1ccc(O)cc1; Pro(3S-OH,4S-Me) = C[C@H]1CN[C@H](C(=O)O)[C@H]1O; Benzoyl(4-octyloxy) = CCCCCCCCOc1ccc(C(=O)*)cc1; Gln(3R-OH) = NC(=O)C[C@@H](O)[C@H](N)C(=O)O; Linoleoyl = CCCCC/C=C\C/C=C\CCCCCCCC(=O)*; X1 = C[C@H]1CN([*:1])C(C(=O)[*:2])[C@H]1O; ξPro(3ξ-OH,4ξ-Me) = CC1CNC(C(=O)O)C1O; ξPro(4R-OH) = O=C(O)C1C[C@@H](O)CN1; Stearoyl = CCCCCCCCCCCCCCCCCC(=O)*; Hyp = O=C(O)[CH]1C[CH](O)CN1; ξT = CC(O)C(N)C(=O)O

Experiments:
Pneumocystis carinii [1] = assay: Similar rat study, 7 days treatment, antipneumocystis activity of Compound IBii and Compound IA; type: in vivo; conditions: rats, 2 mg/kg injected twice daily for 7 days; vehicle 10% DMSO
Experimental: A similar rat study was conducted to determine the antipneumocystis activity of 1-[(4R,5R)-4,5-dihydroxy-N^2 -[4-(octyloxy)benzoyl]-L-iiornithine]echinocandin B (Compound IBii). After 6 weeks of immunosuppression the rats were injected twice daily for 7 days with vehicle alone, Compound IBii (2 mg/kg) or Compound IA (2 mg/kg) during which time immunosuppression was continued. At the end of the treatment period the animals were sacrificed and the number of cysts per lung determined. Compound IA reduced the number of cysts by >99% while Compound IBii reduced the cyst counts by approximately 84% (compared to the vehicle control, 10% DMSO).

[2] = system: Pneumocystis carinii cysts; assay: 4-day treatment experiments, minimum effective dose for 90 percent clearance of cysts (Table III); type: in vivo; conditions: minimum effective dose for 90 percent clearance of cysts, six animals per dose level
Experimental: When 4-day treatment experiments were carried out in a similar manner, but using different doses in order to determine the minimum effective dose for 90 percent clearance of Pneumocystis carinii cysts, the results shown on Table III were obtained (Six animals were used at each dose level.)

P. carinii [3] = assay: Immunosuppressed mice study, reduction of cysts (Table II); type: in vivo, C3 H/HeN mice; conditions: 2 mg/kg intraperitoneally twice daily for one week
From the text: Male C3 H/HeN mice, weighing 22-24 grams each, were immunosuppressed by the addition of dexamethasone to the drinking water for six weeks to induce the development of P. carinii infections. To enhance the infections the mice were also maintained on a low protein diet. At the beginning of the seventh week, the mice were randomly divided into groups of 6. All groups continued to receive dexamethasone in the drinking water and low protein diet for the remainder of the study. Mice in each group were injected intraperitonially twice daily with 0.5 ml of a 10% DMSO solution as a vehicle control or the same cocktail containing drug to achieve a dose of 2 mg/kg. This procedure was continued for one week.
At the end of the treatment period (a total of seven weeks of immunosuppression) the animals were sacrificed and the lung tissue removed. The tissue was then processed to determine the number of cysts for each animal.

Pneumocystis carinii [4] = assay: Rat study of the 2-aminoethyl ether of tetrahydroechinocandin B, four days subcutaneous, four dose levels; type: in vivo, Sprague-Dawley rats; conditions: rats
Experimental: In still another study, the antipneumocystis activity of a compound in wherein R^I is OH, R^II is OH, R^III is --CH2 CH2 NH2, R^I is OH, R^V is CH3, R^V is CH3, R is [drawing 21] preparation and structure in Example G) was determined. In this study, Sprague-Dawley rats (weighing approximately 250 g) were immunosuppressed with dexasone in the drinking water (2.0 mg/L) and maintained on a regular protein diet for 7 weeks to induce the development of pneumocystis pneumonia from a latent infection. Before drug treatment 2 rats were sacrificed to confirm the presence of Pneumocystis carinii pneumonia (PCP), both rats had infections. The remaining rats (weighing approximately 150 g) were distributed into groups of 6 and injected twice daily for four days subcutaneously with compound in 0.25 ml of vehicle (10% DMSO). The control groups received vehicle alone. All animals continued to receive dexasone in the drinking water and regular diet during the drug treatment period. At the completion of treatment all animals were sacrificed, the lungs were removed and processed, and the extent of disease determined by microscopic analysis of stained slides.
Four dose levels of this compound were tested.

P. carinii [5] = assay: In vivo testing of Compound IA and TMP-SMZ against P. carinii in immunosuppressed rats (Table I); design: species or system Sprague-Dawley rats
Experimental: In a representative study employing Compound IA in rats, nine male Sprague-Dawley rats from a colony known to have latent P. carinii infections, weighting approximately 200 grams each, were immunosupressed by the addition of dexamethasone to the drinking water (2.0 mg/liter) for six weeks to induce the development of P. carinii infections. To enhance the infection the rats were also maintained on a low protein diet. At the beginning of the seventh week the rats were divided into three groups of three rats each. All three groups continued to receive dexamethasone in the drinking water and low protein diet throughout the remainder of the study. The rats in Group I were kept as untreated infected controls, those in Group II were injected intraperitoneally twice daily for two weeks with 0.5 ml of sterile dH2 O containing 2 mg of Compound IA, and those in Group III were treated with trimethoprim-sulfamethoxazole (TMP-SMZ) in the drinking water (208 mg TMP and 1.040 g of SMZ/liter) for two weeks, a known treatment for P. carinii infections. Two rats died early in the experiment. One was from group II (rat 72A) and the other from group III (rat 75A). It was not determined whether they died from Pneumocystis pneumonia. At the end of the two week treatment period (a total of eight weeks of immunosuppression) the animals were sacrificed and the lung tissue removed. The lungs from each animal were weighed, and then processed to determine the number of cysts and parasite nuclei for each animal.

P. carinii [6] = assay: Repeat rat experiment with larger number of rats, cysts per lung; type: in vivo; conditions: five rats Compound IA, six rats TMP-SMZ; DMSO control 5.8×10^5 to 3.1×10^7; limit of resolution 2.8×10^3
P. carinii [7] = assay: Long term (21 days) therapy study, rate of cyst clearance; type: in vivo
Experimental: Pentamadine was administered intravenously daily at a dose of 10 mg/kg, 2.5 times the recommended dose for man. Compound IA was given twice daily intraperitonealy at 1.0 mg/kg.

P. carinii [8] = assay: Prophylaxis study in immunosuppressed rats with latent P. carinii infections (Table IV); type: in vivo
Experimental: In a study to test the effectiveness of these compounds as a potential prophylactic agent, rats with latent P. carinii infections were immunosuppressed with dexamethasone in drinking water to stimulate the development of acute PCP. During this immunosuppression period the animals were given daily subcutaneous injections of either 1 mg/kg of Compound IA or vehicle. After six weeks all animals were sacrificed. The number of cysts per lung was determined microscopically and the nuclei (trophozites)were quantitated using a specific DNA probe. From the following table (Table IV) it can be seen that the development of both cysts and trophozoite forms of P. carinii is prevented by daily treatments of Compound IA.

Solubility properties = type: physicochemical; conditions: methanol, ethanol, dimethylformamide, dimethyl sulfoxide, and the like
[9] = individual rats, after two weeks treatment
[10] = individual rats, after two weeks: Compound IA 2 mg i.p. twice daily, or TMP-SMZ in drinking water
[11] = 1 mg/kg s.c. daily for six weeks, P ≤ 0.002

In the case of `CCCCCCCCOc1ccc(C(=O)NC2C[C@@H](O)[C@@H](O)NC(=O)C3[C@@H](O)[C@@H](C)CN3C(=O)C(C(C)O)NC(=O)C([C@H](O)[C@@H](O)c3ccc(O)cc3)NC(=O)C3C[C@@H](O)CN3C(=O)C(C(C)O)NC2=O)cc1` (stereo partly drawn) [Compound IBii, 1-[(4R,5R)-4,5-dihydroxy-N^2-[4-(octyloxy)benzoyl]-L-ornithine]echinocandin B] ({Benzoyl(4-octyloxy)}-[ξOrn(4R-OH,5R-OH)][ξT][ξPro(4R-OH)][ξhTyr(3S-OH,4S-OH)][ξT][X1]; lactam 1-C), the “reduction of number of cysts per lung compared to vehicle control” value (Pneumocystis carinii [1]) is reported as “approximately 84%” and the ED90 [2] is reported as 4.0 mg/kg.

In the case of `CCCCC/C=C\C/C=C\CCCCCCCC(=O)N[C@H]1C[C@@H](O)[C@@H](O)NC(=O)[C@@H]2[C@@H](O)[C@@H](C)CN2C(=O)[C@H]([C@@H](C)O)NC(=O)[C@H]([C@H](O)[C@@H](O)c2ccc(O)cc2)NC(=O)[C@@H]2C[C@@H](O)CN2C(=O)[C@H]([C@@H](C)O)NC1=O` [Echinocandin B] (Linoleoyl-[Orn(4R-OH,5R-OH)]T[Hyp][hTyr(3S-OH,4S-OH)]T[Pro(3S-OH,4S-Me)]; lactam 1-C), the “% Reduction of Cysts” value (P. carinii [3]) is reported as > 99% and the ED90 [2] is reported as 1.2 mg/kg.

“Tetrahydroechinocandin-B, 2-aminoethyl Ether, Trifluoroacetate Salt [Example G]” gave a reduction of cysts (Pneumocystis carinii [4]; 18.25 μg/kg s.c. twice daily for four days) of 96%, a reduction of cysts (Pneumocystis carinii [4]; 37.5 μg/kg s.c. twice daily for four days) of 98% and a reduction of cysts (Pneumocystis carinii [4]; 75 μg/kg s.c. twice daily for four days) of 99%. The reduction of cysts (Pneumocystis carinii [4]; 150 μg/kg s.c. twice daily for four days) was 99%, the ED90 (Pneumocystis carinii [4]; s.c. twice daily for four days, cyst reduction) was “below 18.25 μg/kg” and the ED90 [2] was < 0.02 mg/kg.

For `CCCCCCCCCCCCCCCCCC(=O)NC1CC(O)C(O)NC(=O)C2C(O)C(C)CN2C(=O)C(C(C)O)NC(=O)C(C(O)C(O)c2ccc(O)cc2)NC(=O)C2CC(O)CN2C(=O)C(C(C)O)NC1=O` (stereo not drawn) [Tetrahydroechinocandin B (TEB), tetrahydroechinocandin B] (Stearoyl-[ξOrn(4,5-diOH)]T[Hyp][ξhTyr(βξ-OH,γξ-OH)]T[ξPro(3ξ-OH,4ξ-Me)]; lactam 1-C; configuration not given here), the “% Reduction of Cysts” value (P. carinii [3]) was 99% and the ED90 [2] was 0.2 mg/kg.

With `CC[C@H](C)C[C@H](C)CCCCCCCCC(=O)N[C@H]1C[C@@H](O)[C@@H](O)NC(=O)[C@@H]2[C@@H](O)[C@@H](C)CN2C(=O)[C@H]([C@H](O)CC(N)=O)NC(=O)[C@H]([C@H](O)[C@@H](O)c2ccc(O)cc2)NC(=O)[C@@H]2C[C@@H](O)CN2C(=O)[C@H]([C@@H](C)O)NC1=O` [Compound IA] ({Tetradecanoyl(10R,12S-Me2)}-[Orn(4R-OH,5R-OH)]T[Hyp][hTyr(3S-OH,4S-OH)][Gln(3R-OH)][Pro(3S-OH,4S-Me)]; lactam 1-C) the “CYST SCORE” value (P. carinii [5]; [9]) was 0, the “LUNG WT.” value (P. carinii [5]; [9]) was 2.83 gms and 1.40 gms and the “TOTAL NUCLEI per gm lung” value (P. carinii [5]; [10]) was 7.4 × 10^8 and 7.1 × 10^8. The “TOTAL NUCLEI per lung” value (P. carinii [5]; [10]) was 2.1 × 10^9 and 1.0 × 10^9, the “cysts in the lungs of treated rats” value (P. carinii [5]; two weeks treatment, controls 3.2×10^8 -1.5×10^9) was “No cysts could be found” and the “number of parasite nuclei (range over treated rats)” value (P. carinii [5]; two weeks treatment, controls 5.8×10^9 -1.4×10^10) was 1.0-2.1×10^9. The “number of cysts per lung (range over rats)” value (P. carinii [6]) was 3.2×10^3 to 2.6×10^4, the “reduction of number of cysts per lung compared to vehicle control” value (Pneumocystis carinii [1]) was > 99% and the “% Reduction of Cysts” value (P. carinii [3]) was > 99%. The “extent of cyst clearance (reduction)” value (P. carinii [7]; Compound IA 1.0 mg/kg i.p. twice daily, compared with known agents at the two week time point) was “greater than 99%”, the “time to elimination of cysts” value (P. carinii [7]; Compound IA 1.0 mg/kg intraperitoneally twice daily) was ≤ 4 days and the ED90 [2] was 0.2 mg/kg. The “Cysts Log Mean” value (P. carinii [8]; 1 mg/kg s.c. daily for six weeks during immunosuppression, detection limit 4.66, control 7.76 ± 0.10) was 4.70 ± 0.04, the “Nuclei Log Mean” value (P. carinii [8]; 1 mg/kg s.c. daily for six weeks, DNA probe, detection limit 4.66, control 7.50 ± 0.15) was 4.85 ± 0.05 and the “Cysts Reduction” value (P. carinii [8]; [11]) was > 99.9%. For the same compound, the “Nuclei Reduction” value (P. carinii [8]; [11]) was 99.8%, the “Mean Lung Wt.” value (P. carinii [8]; 1 mg/kg s.c. daily for six weeks, P ≤ 0.002 vs control) was 1.81 ± .10 gms and the “Mean Body Wt.” value (P. carinii [8]; 1 mg/kg s.c. daily for six weeks, control 147.1 ± 6.3) was 142.0 ± 4.2 gms. For the same compound, the “solubility in organic solvents” value (Solubility properties) was “soluble”.

For “O-methyltetrahydroechinocandin B [O-Methyl-TEB]”, the “% Reduction of Cysts” value (P. carinii [3]) was > 99%.

With “O-benzyltetrahydroechinocandin B [O-Benzyl-TEB]” the “% Reduction of Cysts” value (P. carinii [3]) was 99%.
